The values that follow come from article PMC3445516 (PLoS ONE, 2012).

For orientation: IC50 means the point on the concentration scale where inhibition reaches its midpoint.

Each structure is given as a SMILES string. A value given as a limit tells only on which side of the number the result lay.

Experiment [1] concerns LPS-stimulated TNFα synthesis. Further details: method as in PMID 14561090. As to conditions: acute rat model of LPS-stimulated TNFα synthesis; cited from earlier work.
Another experiment addresses p38α (Homo sapiens, UniProt Q16539). Also on record: method as in PMID 14561090. As to conditions: read-out: in vitro IC50 for p38α; cited from earlier work.
The target in another experiment is T1, CAMKK2 (Homo sapiens, UniProt Q96RR4).
T1 construct: purchased Ambit Biosciences (KINOMEscan)
Put plainly: Ambit kinase profiling, competition binding. Particulars: compound concentration 10 uM, read-out: Percent Competition. The source says:
(§1) Supplement pone.0044653.s004.xls, sheet "Compound 122" | column: Percent Competition

The target in experiment [2] is T2, RPS6KA1(Kin.Dom.1-N-terminal) (Homo sapiens, UniProt Q15418).
T2 construct: RPS6KA1(Kin.Dom.1-N-terminal); purchased Ambit Biosciences (KINOMEscan)
Put plainly: Ambit kinase profiling, competition binding. As to conditions: compound concentration 10 uM, read-out: Percent Competition.
Text: as §1

A further experiment has as its target T3, ABL1(T315I) (Homo sapiens, UniProt P00519, T315I).
T3 construct: purchased Ambit Biosciences (KINOMEscan)
Put plainly: Ambit kinase profiling, competition binding. As to conditions: compound concentration 10 uM, read-out: Percent Competition.
Text: as §1

In the next experiment the target is T4, NEK9 (Homo sapiens, UniProt Q8TD19).
T4 construct: purchased Ambit Biosciences (KINOMEscan)
As to the kind of experiment: Ambit kinase profiling, competition binding. As to conditions: compound concentration 10 uM, read-out: Percent Competition.
Text: as §1

Chain of p38α (Q16539 whole entry): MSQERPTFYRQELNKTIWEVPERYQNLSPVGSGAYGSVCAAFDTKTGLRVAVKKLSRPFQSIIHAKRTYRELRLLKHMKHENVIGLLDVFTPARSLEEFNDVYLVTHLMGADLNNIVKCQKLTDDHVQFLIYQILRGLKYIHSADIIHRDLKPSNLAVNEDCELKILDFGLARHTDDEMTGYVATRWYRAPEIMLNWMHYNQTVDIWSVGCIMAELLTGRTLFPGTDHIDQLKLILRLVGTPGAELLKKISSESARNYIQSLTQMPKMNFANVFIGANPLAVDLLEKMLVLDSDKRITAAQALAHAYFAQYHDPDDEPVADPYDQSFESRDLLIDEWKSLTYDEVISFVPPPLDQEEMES
T1 sequence (Q96RR4 whole entry): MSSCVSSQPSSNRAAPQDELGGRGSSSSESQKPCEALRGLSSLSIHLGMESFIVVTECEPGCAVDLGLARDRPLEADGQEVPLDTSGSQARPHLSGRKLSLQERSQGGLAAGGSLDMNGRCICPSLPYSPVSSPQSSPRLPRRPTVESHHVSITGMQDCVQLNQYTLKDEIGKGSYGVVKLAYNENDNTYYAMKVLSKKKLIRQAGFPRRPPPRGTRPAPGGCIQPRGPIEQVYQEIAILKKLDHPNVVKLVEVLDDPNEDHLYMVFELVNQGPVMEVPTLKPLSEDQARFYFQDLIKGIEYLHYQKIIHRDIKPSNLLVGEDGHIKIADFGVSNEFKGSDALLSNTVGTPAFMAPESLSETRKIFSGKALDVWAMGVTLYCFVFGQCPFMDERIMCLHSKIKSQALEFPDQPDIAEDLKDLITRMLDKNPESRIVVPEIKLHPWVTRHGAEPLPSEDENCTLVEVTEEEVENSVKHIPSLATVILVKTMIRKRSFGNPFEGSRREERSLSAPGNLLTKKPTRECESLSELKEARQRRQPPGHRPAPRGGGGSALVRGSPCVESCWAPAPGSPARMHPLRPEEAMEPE
T2 sequence (Q15418 1-391 limits assumed): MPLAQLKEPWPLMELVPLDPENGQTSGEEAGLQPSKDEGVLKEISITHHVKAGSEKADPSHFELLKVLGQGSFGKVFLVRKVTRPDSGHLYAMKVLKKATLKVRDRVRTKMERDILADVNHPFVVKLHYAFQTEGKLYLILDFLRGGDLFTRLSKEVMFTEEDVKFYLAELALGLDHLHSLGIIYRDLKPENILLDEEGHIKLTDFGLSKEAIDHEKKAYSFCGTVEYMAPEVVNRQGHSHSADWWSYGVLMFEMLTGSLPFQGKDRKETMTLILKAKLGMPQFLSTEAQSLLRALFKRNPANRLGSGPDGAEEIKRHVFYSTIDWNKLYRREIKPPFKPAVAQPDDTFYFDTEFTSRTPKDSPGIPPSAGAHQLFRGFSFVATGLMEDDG
T4 sequence (Q8TD19 whole entry): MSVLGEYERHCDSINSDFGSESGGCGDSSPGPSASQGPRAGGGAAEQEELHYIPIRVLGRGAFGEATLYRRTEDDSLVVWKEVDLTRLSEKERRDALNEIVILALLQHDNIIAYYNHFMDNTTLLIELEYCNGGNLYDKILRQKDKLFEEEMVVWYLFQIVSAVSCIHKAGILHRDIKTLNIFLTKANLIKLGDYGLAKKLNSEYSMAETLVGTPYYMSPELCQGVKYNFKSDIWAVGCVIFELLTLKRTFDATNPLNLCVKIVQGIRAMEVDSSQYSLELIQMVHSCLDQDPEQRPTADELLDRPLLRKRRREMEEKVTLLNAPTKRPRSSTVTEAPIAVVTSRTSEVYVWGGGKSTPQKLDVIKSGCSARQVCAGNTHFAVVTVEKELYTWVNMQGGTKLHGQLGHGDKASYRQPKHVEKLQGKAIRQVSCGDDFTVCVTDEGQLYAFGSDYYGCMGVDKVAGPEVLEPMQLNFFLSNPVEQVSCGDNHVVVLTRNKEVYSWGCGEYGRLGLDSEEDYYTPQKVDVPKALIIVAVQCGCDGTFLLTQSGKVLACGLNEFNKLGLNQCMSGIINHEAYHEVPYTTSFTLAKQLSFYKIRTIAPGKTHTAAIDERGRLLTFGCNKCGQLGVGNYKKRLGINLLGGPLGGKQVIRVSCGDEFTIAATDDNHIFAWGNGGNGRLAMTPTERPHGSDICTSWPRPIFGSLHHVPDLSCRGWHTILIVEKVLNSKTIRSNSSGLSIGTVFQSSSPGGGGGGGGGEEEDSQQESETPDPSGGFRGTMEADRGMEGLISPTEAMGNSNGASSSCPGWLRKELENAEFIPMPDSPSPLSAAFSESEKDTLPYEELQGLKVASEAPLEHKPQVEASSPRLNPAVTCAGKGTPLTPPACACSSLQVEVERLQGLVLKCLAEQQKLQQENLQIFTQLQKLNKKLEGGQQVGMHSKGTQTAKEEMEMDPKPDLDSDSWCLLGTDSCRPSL

For `CC(O)CNc1cc(-c2[nH]c3cccnc3c2-c2ccc(F)cc2)ccn1` (stereo not drawn) [Compound 140], the in vivo efficacy entry in experiment [1] is reported as “in vivo efficacy has been demonstrated”. For the same compound, the half-inhibitory concentration (IC50) at p38α was 1 nM.
As for `Fc1ccc(-c2c(-c3ccncc3)[nH]c3nccnc23)cc1` [RO1155697-000-005], the inhibition at 10 µM (on CAMKK2; in experiment [2]; at ABL1(T315I); at NEK9) was below 50% in each case.
